Here are results for 16 compounds from patent US10183954B2, “Oxathiolane carboxylic acids and derivatives for the treatment and prophylaxis of virus infection” (Hoffmann-La Roche Inc., priority 2016, dated 2019).

pEC50: −log10 of the molar value.

Sequence of human TLR7 (Q9NYK1 27-1049): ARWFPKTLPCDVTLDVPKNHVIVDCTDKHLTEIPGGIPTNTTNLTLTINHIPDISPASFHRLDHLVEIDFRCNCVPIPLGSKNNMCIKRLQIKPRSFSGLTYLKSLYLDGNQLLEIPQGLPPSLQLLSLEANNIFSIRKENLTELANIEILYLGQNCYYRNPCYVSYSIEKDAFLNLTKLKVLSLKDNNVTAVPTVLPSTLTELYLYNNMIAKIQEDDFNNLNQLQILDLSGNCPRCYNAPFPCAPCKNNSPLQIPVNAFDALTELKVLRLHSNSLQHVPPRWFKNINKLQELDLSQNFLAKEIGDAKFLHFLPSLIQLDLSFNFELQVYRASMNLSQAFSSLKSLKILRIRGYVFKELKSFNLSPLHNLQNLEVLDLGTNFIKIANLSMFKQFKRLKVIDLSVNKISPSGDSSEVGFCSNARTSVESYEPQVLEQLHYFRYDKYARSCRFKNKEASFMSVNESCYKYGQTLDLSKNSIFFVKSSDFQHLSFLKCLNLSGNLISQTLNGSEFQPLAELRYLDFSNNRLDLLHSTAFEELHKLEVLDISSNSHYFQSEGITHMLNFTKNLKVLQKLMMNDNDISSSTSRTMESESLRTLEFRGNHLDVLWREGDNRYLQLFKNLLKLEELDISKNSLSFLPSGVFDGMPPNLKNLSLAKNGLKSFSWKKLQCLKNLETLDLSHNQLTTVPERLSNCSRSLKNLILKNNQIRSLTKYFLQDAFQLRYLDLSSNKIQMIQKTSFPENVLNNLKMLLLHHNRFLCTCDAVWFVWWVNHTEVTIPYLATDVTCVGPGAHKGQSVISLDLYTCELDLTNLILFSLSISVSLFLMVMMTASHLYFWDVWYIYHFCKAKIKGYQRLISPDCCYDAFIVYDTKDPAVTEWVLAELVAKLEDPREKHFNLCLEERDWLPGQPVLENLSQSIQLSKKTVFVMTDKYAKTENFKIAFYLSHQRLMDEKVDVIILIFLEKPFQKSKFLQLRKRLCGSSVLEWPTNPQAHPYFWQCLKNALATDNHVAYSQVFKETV

The target in one data set is human TLR7 (Homo sapiens (Human), UniProt Q9NYK1). As to the kind of experiment: HEK293-Blue-hTLR-7 cells assay (SEAP reporter). Format: cell-based. The note with it: 20 hours incubation. An excerpt:
HEK293-Blue-hTLR-7 Cells Assay: A stable HEK293-Blue-hTLR-7 cell line was purchased from InvivoGen (Cat.#: hkb-htlr7, San Diego, Calif., USA). These cells were designed for studying the stimulation of human TLR7 by monitoring the activation of NF-κB. A SEAP (secreted embryonic alkaline phosphatase) reporter gene was placed under the control of the […] minimal promoter fused to five NF-κB and AP-1-binding sites. The SEAP was induced by activating NF-κB and AP-1 via stimulating HEK-Blue hTLR7 cells with TLR7 ligands. Therefore the reporter expression was regulated by the NF-κB promoter upon stimulation of human TLR7. The cell culture supernatant SEAP reporter activity was determined using QUANTI-Blue™ kit (Cat.#: rep-qb 1, Invivogen, San Diego, Ca, USA) at a wavelength of 640 nm, a detection medium that turns purple to blue in the presence of alkaline phosphatase. HEK293-Blue-hTLR7 cells were incubated at a density of 250,000˜450,000 cells/mL in a volume of 180 μL in a 96-well plate in Dulbecco's Modified Eagle's medium (DMEM) containing 4.5 g/l glucose, 50 U/ml penicillin, […], […], 2 mM L-glutamine, 10% (v/v) heat-inactivated fetal bovine serum for 24 h. Then the HEK293-Blue-hTLR-7 cells were incubated with addition of 20 μL test compound in a serial dilution in the presence of final DMSO at 1% and perform incubation under 37° C. in a CO2 incubator for 20 hours. Then 20 μL of the supernatant from each well was incubated with 180 μL Quanti-blue substrate solution at 37° C. for 1-3 hours and the absorbance was read at 620˜655 nm using a spectrophotometer.
What is called pEC50 is the EC50 on a negative log10 scale, so that one unit is a factor of ten. In turn, `CC[C@H](O)[C@H]1O[C@@H](n2c(=O)sc3c(=O)[nH]c(N)nc32)[C@H](CC(=O)OC)S1` [Example 4-P1, methyl 2-[(2S,4S,5R)-5-(5-amino-2,7-dioxo-6H-thiazolo[4,5-d]pyrimidin-3-yl)-2-[(1S)-1-hydroxypropyl]-1,3-oxathiolan-4-yl]acetate] had a pEC50 of 4.89.
On the same count and under the same terms, the value for `COC(=O)CC1SC(CO)OC1n1c(=O)sc2c(=O)[nH]c(N)nc21` (stereo not drawn) [Example 1-P1, methyl 2-[(trans-2,4-trans-4,5)-5-(5-amino-2,7-dioxo-6H-thiazolo[4,5-d]pyrimidin-3-yl)-2-hydroxymethyl)-1,3-oxathiolan-4-yl]acetate] was 3.50.
In turn, `C[C@H](O)C1OC(n2c(=O)sc3c(=O)[nH]c(N)nc32)C(CC(=O)O)S1` (single isomer, unassigned) [Example 10-P3] had a pEC50 of 4.64.
Still for that read-out and setting: as for `CCCC[C@H](O)C1OC(n2c(=O)sc3c(=O)[nH]c(N)nc32)C(CC(=O)O)S1` (single isomer, unassigned) [Example 11-P3], the figure is 3.49; as for `COC(=O)CC1SC([C@@H](O)C2CC2)OC1n1c(=O)sc2c(=O)[nH]c(N)nc21` (single isomer, unassigned) [Example 13-P3], 4.82; as for `CC[C@H](O)[C@H]1O[C@@H](n2c(=O)sc3c(=O)[nH]c(N)nc32)[C@H](CC(=O)N(C)C)S1` [Example 7-P1, 2-[(2S,4S,5R)-5-(5-amino-2,7-dioxo-6H-thiazolo[4,5-d]pyrimidin-3-yl)-2-[(1S)-1-hydroxypropyl]-1,3-oxathiolan-4-yl]-N,N-dimethyl-acetamide], 4.55.
Still for that read-out and setting: as for `Nc1nc2c(sc(=O)n2[C@@H]2O[C@H](CO)S[C@H]2CC(=O)O)c(=O)[nH]1` (relative stereo) [Example 2-P1, 2-[(trans-2,4-trans-4,5)-5-(5-amino-2,7-dioxo-6H-thiazolo[4,5-d]pyrimidin-3-yl)-2-(hydroxymethyl)-1,3-oxathiolan-4-yl]acetic acid], the figure is 3.84; as for `COC(=O)CC1SC([C@H](C)O)OC1n1c(=O)sc2c(=O)[nH]c(N)nc21` (single isomer, unassigned) [Example 9-P3], 4.66; as for `CC[C@H](O)[C@H]1O[C@@H](n2c(=O)sc3c(=O)[nH]c(N)nc32)[C@H](CC(=O)N2CCOCC2)S1` [Example 8-P1, 5-amino-3-[(2S,4S,5R)-2-[(1S)-1-hydroxypropyl]-4-(2-morpholino-2-oxo-ethyl)-1,3-oxathiolan-5-yl]-6H-thiazolo[4,5-d]pyrimidine-2,7-dione], 5.60.
Still for that read-out and setting: as for `CN(C)C(=O)CC1SC(CO)OC1n1c(=O)sc2c(=O)[nH]c(N)nc21` (stereo not drawn) [Example 3-P1, 2-[(trans-2,4-trans-4,5)-5-(5-amino-2,7-dioxo-6H-thiazolo[4,5-d]pyrimidin-3-yl)-2-(hydroxymethyl)-1,3-oxathiolan-4-yl]-N,N-dimethyl-acetamide], the figure is 3.33; as for `CC[C@H](O)[C@H]1O[C@@H](n2c(=O)sc3c(=O)[nH]c(N)nc32)[C@H](CC(=O)NC)S1` [Example 6-P1, 2-[(2S,4S,5R)-5-(5-amino-2,7-dioxo-6H-thiazolo[4,5-d]pyrimidin-3-yl)-2-[(1S)-1-hydroxypropyl]-1,3-oxathiolan-4-yl]-N-methyl-acetamide], 4.64.
Consider `C=CC[C@H](O)C1OC(n2c(=O)sc3c(=O)[nH]c(N)nc32)C(CC(=O)O)S1` (single isomer, unassigned) [Example 12-P3], for which the pEC50 is 4.38.
Same read-out and setting: as for `Nc1nc2c(sc(=O)n2C2OC([C@@H](O)C3CC3)SC2CC(=O)O)c(=O)[nH]1` (single isomer, unassigned) [Example 14-P3], the figure is 5.00.
Still for that read-out and setting: the value for `CC[C@H](O)[C@H]1O[C@@H](n2c(=O)sc3c(=O)[nH]c(N)nc32)[C@H](CC(=O)O)S1` [Example 5-P1, 2-[(2S,4S,5R)-5-(5-amino-2,7-dioxo-6H-thiazolo[4,5-d]pyrimidin-3-yl)-2-[(1S)-1-hydroxypropyl]-1,3-oxathiolan-4-yl]acetic acid] was 4.62.

For the next data set, the system named is human hepatocytes. As to the kind of experiment: Metabolic conversion of prodrugs in human hepatocytes.
Conditions: not given
Format: in vitro ADME. The text has this:
Metabolism of Prodrugs: Compounds of Formula (II) A study was undertaken to evaluate the metabolic conversion of prodrugs, compounds of formula (II) or (IIa), to compounds of formula (I) or (Ia) of the present invention. The prodrugs, compounds of formula (II) or (IIa), can be metabolized to the active compound of formula (I) or (Ia) and other compounds of the invention in the body if they are served as prodrugs. Hepatocytes are often used to assess the degree of metabolic conversion of prodrugs in the body of animal or human. A study was undertaken to evaluate the metabolic conversion of prodrug Example 15, to the corresponding active form, Example 5-P1, in the presence of human hepatocytes. The formation of active form, Example 5-P1, was monitored in the study. For comparison, the metabolic conversion of famciclovir to penciclovir was also assessed. Cryopreserved hepatocytes plating medium (Cat.#: PY-HMD-03) was purchased from RILD Research Institute for Liver Diseases (Shanghai) Co. Ltd. Cryopreserved human hepatocyte (Cat.#: X008005, Lot#:VRR) was purchased from BioreclamationIVT (Baltimore, Md.). The stock hepatocyte suspension was prepared from cryopreserved hepatocytes in plating medium at the concentration of 1.8×10^6 cells/mL. […] The compounds were quantified on an API5500 […] instrument in the ESI-Positive MRM mode.
As to `CC[C@H](OC(=O)c1ccccc1)[C@H]1O[C@@H](n2c(=O)sc3cnc(N)nc32)[C@H](CC(=O)OC)S1` [Example 15, [(1S)-1-[(2S,4S,5R)-5-(5-amino-2-oxo-thiazolo[4,5-d]pyrimidin-3-yl)-4-(2-methoxy-2-oxo-ethyl)-1,3-oxathiolan-2-yl]propyl]benzoate], the “Metabolic conversion of prodrug to active metabolite” value was “metabolized to yield the corresponding active metabolites”.
Same read-out and setting: as for `CC(=O)OCC(CCn1cnc2cnc(N)nc21)COC(C)=O` [Famciclovir, famciclovir, reference compound], the entry is “metabolized to yield the corresponding active metabolites”.
